In patent US11229618B2 (Amarin Pharmaceuticals Ireland Limited, priority 2012, dated 2022):

Key:
[1] = MARINE: RBC fatty acid concentrations, ratios and class proportions (GC/FID); format: in vivo, human
Method: A multi-center, placebo-controlled randomized, double-blind, 12-week study with an open-label extension is performed to evaluate the efficacy and safety of AMR101 in patients with fasting triglyceride levels≥500 mg/dL. The primary objective of the study is to determine the efficacy of AMR101 2 g daily and 4 g daily, compared to placebo, in lowering fasting TG levels in patients with fasting TG levels≥500 mg/dL and ≤1500 mg/dL (≥5.65 mmol/L and ≤16.94 mmol/L).
Eligible patients will be randomly assigned at Visit 4 (Week 0) to receive orally AMR101 2 g daily, AMR101 4 g daily, or placebo for the 12-week double-blind treatment period. AMR101 is provided in 1 g liquid-filled, oblong, gelatin capsules. The matching placebo capsule is filled with light liquid paraffin and contains 0 g of AMR101. During the double-blind treatment period, patients will take 2 capsules (AMR101 or matching placebo) in the morning and 2 in the evening for a total of 4 capsules per day. Patients in the AMR101 2 g/day treatment group will receive 1 AMR101 1 g capsule and 1 matching placebo capsule in the morning and in the evening. Patients in the AMR101 4 g/day treatment group will receive 2 AMR101 1 g capsules in the morning and evening.
Lipids were extracted from plasma and RBC suspensions and converted into fatty acid methyl esters for analysis using a standard validated gas chromatography/flame ionization detection method. Fatty acid parameters were compared between EPA treatment groups and placebo using an ANCOVA model with treatment, gender, type of statin therapy, and presence of diabetes as factors, and the baseline parameter value as a covariate. LSMs, SEs, and 2-tailed 95% confidence intervals for each treatment group and for each comparison were determined.
The monounsaturated fatty acid group included myristoleic, palmitoleic, cis-vaccenic, oleic, gondoic/gadoleic, erucic and nervonic acids. The saturated fatty acid group included myristic, palmitic, stearic, arachidic, behenic and lignoceric acids. The “total omega-3” group included α-linolenic, stearidonic, eicosatrienoic, ω-3 arachidonic, eicosapentaenoic, ω-3 docosapentaenoic and docosahecaenoic acids. The “total omega-6” group included linoleic, γ-linolenic, eicosadienoic, dihomo-γ-linolenic, ω-6 arachidonic, adrenic, and ω-6 docosapentaenoic acids. The “total fatty acid” group represented the sum of the monounsaturated, saturated, total omega-3 and total omega-6 groups.

[2] = AAMI 6-week study: essential fatty acid parameters in plasma (gas chromatography); format: in vivo, human; settings: AAMI; for AA Plasma Mean change from Baseline / DHA Plasma Mean change from Baseline: mean (SD)
Method: A single-center, 6-week, double-blind, randomizes, parallel-group, placebo-controlled, dose-ranging pilot study was performed to evaluate the efficacy, tolerability, and safety of >96% ethyl-EPA in subjects with subjective and objective memory impairment according to generally accepted criteria for Age-Associated Memory Impairment (“AAMI”). The primary objective of the study was to determine the effect of >96% ethyl-EPA 1 g, 2 g, and 4 g daily, compared to placebo, on cognitive performance in subjects with AAMI.
Ninety-four subjects were randomized into one of six groups: 1 g E-EPA daily (n=23), 2 g E-EPA daily (n=24), 4 g E-EPA daily (n=24), 1 g placebo daily (n=7), 2 g placebo daily (n=8), and 4 g placebo daily (n=8). E-EPA was provided as 500 mg soft gel capsules containing>96% E-EPA and 0.2% dl-α-tocopherol as an antioxidant. Placebo capsules contained 467 mg of liquid paraffin and 0.2% dl-α-tocopherol. Ninety-one subjects completed the study. Two subjects in the 2 g E-EPA group and one subject in the 2 g placebo group discontinued the study.
Blood samples (10 mL) were collected at Visit 1 (screening) and at Visits 4, 5 and 6. Analysis was performed by MSR Lipid Analysis, Scottish Crop Research Institute, Dundee, UK. The screening sample acted as baseline for the EFA measurements. Lipid was extracted from plasma, serum and RBC suspensions and converted into fatty acid methyl esters which were analyzed by gas chromatography to give fatty acid profiles as micrograms fatty acid per gram of sample (μgFA/g) and normalized area percent.
RBC and plasma EFA data were collected at baseline, Day 14, 28 and 42 and summarized by visit for each treatment group. Change from baseline and percent change from baseline were also summarized. ANCOVA comparison of ethyl-EPA dose groups and ethyl-EPA versus placebo was performed.

[3] = red blood cell, IPE 4 g/day vs placebo, week 12, P <0.0001

In the case of `CC/C=C\C/C=C\C/C=C\C/C=C\C/C=C\CCCC(=O)OCC` [IPE, all-cis eicosa-5,8,11,14,17-pentaenoic acid ethyl ester], the “Mono-unsaturated, proportion to total fatty acids, Mean placebo-adjusted percent change from baseline” value ([1]; RBCs, IPE 2 g/day vs placebo, P 0.0435) was −3.1%, the “Saturated, proportion to total fatty acids, Mean placebo-adjusted percent change from baseline” value ([1]; RBCs, IPE 2 g/day vs placebo, P 0.3278) was 1.1% and the “Mono-unsaturated, proportion to total fatty acids, Mean placebo-adjusted percent change from baseline” value ([1]; RBCs, IPE 4 g/day vs placebo, P 0.0154) was −3.9%. For the same compound, the “Saturated, proportion to total fatty acids, Mean placebo-adjusted percent change from baseline” value ([1]; RBCs, IPE 4 g/day vs placebo, P 0.1145) was 1.9%, the “Total omega-6, proportion to total fatty acids, Mean placebo-adjusted percent change from baseline” value ([1]; RBCs, IPE 4 g/day vs placebo, P <0.0001) was −17.3% and the “AA Mean placebo-adjusted percent change from baseline” value ([1]; red blood cell, IPE 2 g/day vs placebo, week 12, P 0.0008) was −8.0%. For the same compound, the “Linoleic Mean placebo-adjusted percent change from baseline” value ([1]; red blood cell, IPE 2 g/day vs placebo, week 12, P 0.1278) was −4.7%, the “Oleic Mean placebo-adjusted percent change from baseline” value ([1]; red blood cell, IPE 2 g/day vs placebo, week 12, P 0.3736) was −2.1% and the “DHA Mean placebo-adjusted percent change from baseline” value ([1]; red blood cell, IPE 2 g/day vs placebo, week 12, P 0.5859) was −1.8%. The “Stearic Mean placebo-adjusted percent change from baseline” value ([1]; red blood cell, IPE 2 g/day vs placebo, week 12, P 0.5886) was 1.1%, the “Palmitic Mean placebo-adjusted percent change from baseline” value ([1]; red blood cell, IPE 2 g/day vs placebo, week 12, P 0.9465) was −0.1% and the “DPAn-3 Mean placebo-adjusted percent change from baseline” value ([1]; red blood cell, IPE 2 g/day vs placebo, week 12, P <0.0001) was 86.4%. For the same compound, the “DHA Mean placebo-adjusted percent change from baseline” value ([1]; red blood cell, IPE 4 g/day vs placebo, week 12, P 0.1216) was −5.2%, the “Oleic Mean placebo-adjusted percent change from baseline” value ([1]; red blood cell, IPE 4 g/day vs placebo, week 12, P 0.1325) was −3.7% and the “Palmitic Mean placebo-adjusted percent change from baseline” value ([1]; red blood cell, IPE 4 g/day vs placebo, week 12, P 0.7427) was −0.7%. The “Stearic Mean placebo-adjusted percent change from baseline” value ([1]; red blood cell, IPE 4 g/day vs placebo, week 12, P 0.7565) was −0.7%, the “DPAn-3 Mean placebo-adjusted percent change from baseline” value [1, 3] was 105.6% and the “Linoleic Mean placebo-adjusted percent change from baseline” value [1, 3] was −13.0%. The “AA Plasma Mean change from Baseline” value ([2]; 1 g daily, Day 14) was −9.7 (22.20) μg/g, the “DHA Plasma Mean change from Baseline” value ([2]; 1 g daily, Day 14) was −6.4 (13.30) μg/g and the “AA Plasma Mean change from Baseline” value ([2]; 1 g daily, Day 28) was −11.3 (28.13) μg/g. The “DHA Plasma Mean change from Baseline” value ([2]; 1 g daily, Day 28) was −6.6 (15.53) μg/g, the “AA Plasma Mean change from Baseline” value ([2]; 1 g daily, Day 42) was −8.7 (31.35) μg/g and the “DHA Plasma Mean change from Baseline” value ([2]; 1 g daily, Day 42) was −5.4 (18.17) μg/g. For the same compound, the “AA Plasma 1 or 2 g versus 4 g LS Mean” value ([2]; 1 g versus 4 g) was 4.2 µg/g, the “DHA Plasma 1 or 2 g versus 4 g LS Mean” value ([2]; 1 g versus 4 g) was -0.8 µg/g and the “AA Plasma Mean change from Baseline” value ([2]; 2 g daily, Day 14) was −13.9 (22.13) μg/g. The “DHA Plasma Mean change from Baseline” value ([2]; 2 g daily, Day 14) was −5.4 (14.29) μg/g, the “AA Plasma Mean change from Baseline” value ([2]; 2 g daily, Day 28) was 21.6 (28.32) μg/g and the “DHA Plasma Mean change from Baseline” value ([2]; 2 g daily, Day 28) was −8.1 (15.82) μg/g. The “AA Plasma Mean change from Baseline” value ([2]; 2 g daily, Day 42) was −27.3 (26.76) μg/g, the “DHA Plasma Mean change from Baseline” value ([2]; 2 g daily, Day 42) was −6.0 (16.69) μg/g and the “AA Plasma 1 or 2 g versus 4 g LS Mean” value ([2]; 2 g versus 4 g) was 15.6 µg/g. For the same compound, the “DHA Plasma 1 or 2 g versus 4 g LS Mean” value ([2]; 2 g versus 4 g) was 1.5 µg/g, the “AA Plasma Mean change from Baseline” value ([2]; 4 g daily, Day 14) was −27.2 (28.89) μg/g and the “DHA Plasma Mean change from Baseline” value ([2]; 4 g daily, Day 14) was −10.3 (13.35) μg/g. For the same compound, the “AA Plasma Mean change from Baseline” value ([2]; 4 g daily, Day 28) was −43.7 (32.24) μg/g, the “DHA Plasma Mean change from Baseline” value ([2]; 4 g daily, Day 28) was −13.5 (14.10) μg/g and the “AA Plasma Mean change from Baseline” value ([2]; 4 g daily, Day 42) was −48.3 (22.20) μg/g. The “DHA Plasma Mean change from Baseline” value ([2]; 4 g daily, Day 42) was −13.8 (15.31) μg/g.
